# Laboratory results as given in US11696913B2, “Prolonged ectoparasite-controlling agent for animal” (MITSUI CHEMICALS AGRO, INC., priority 2017, dated 2023).
# What was measured:
# [1] = system: Ctenocephalides felis; test: In vitro contact test with fleas; settings: read-out: insecticidal activity; for pest or weed control at 0.04 µg/cm2, 0.04 µg/cm2: dose 0.04 μg/cm^2, dead or moribund fleas after 48 h; for pest or weed control at 0.2 µg/cm2, 0.2 µg/cm2: dose 0.2 μg/cm^2, dead or moribund fleas after 48 h; for pest or weed control at 1 µg/cm2, 1 µg/cm2: dose 1 μg/cm^2, dead or moribund fleas after 48 h
# Protocol: In Vitro Contact Tests with Fleas
# In vitro contact tests with fleas were conducted with adult male and female cat fleas (Ctenocephalides felis).
# To coat the test tubes, the test substance was dissolved and diluted in acetone p.a. to the desired concentration. The solution was then homogeneously applied to the inner wall and base of a glass tube by turning and rocking on an orbital shaker until complete evaporation of the solvent. For example, with a 900 ppm solution of test substance, an area-based dose of 5 μg/cm^2 was achieved.
# Upon complete evaporation of the solvent, 5-10 adult cat fleas (Ctenocephalides felis) were added to each coated tube, which was then sealed with a perforated plastic lid and incubated in a horizontal position at room temperature and ambient humidity. After 48 h, insecticidal activity against fleas was determined. For this, fleas were collected to the base of the tube by knocking the tube, and the tube was allowed to stand upright. Fleas which remained motionless at the base or moved in an uncoordinated manner were considered dead or moribund, respectively.
# A substance was judged to have good insecticidal activity against Ctenocephalides felis when at least 80% of the fleas were found dead or moribund at a dose of the substance of μg/cm^2. 100% insecticidal activity means that all the fleas were found dead or moribund. 0% insecticidal activity means that no fleas were found dead or moribund.
# [2] = system: Amblyomma americanum; test: In vitro contact test with hard ticks (Amblyomma americanum nymphs); settings: read-out: acaricidal activity; for pest or weed control at 0.2 µg/cm2, 0.2 µg/cm2: dose 0.2 μg/cm^2, 48 h; for pest or weed control at 1 µg/cm2, 1 µg/cm2: dose 1 μg/cm^2, 48 h
# Protocol: (§1) In Vitro Contact Tests with Adult Hard Ticks
# (§2) In vitro contact tests with ticks were conducted with adult males and females of Rhipicephalus sanguineus, Ixodes ricinus, or Dermacentor variabilis, or nymphs of Amblyomma americanum.
# (§3) For the coating of the test vials, the test substance was dissolved and diluted in acetone p.a. to the desired concentration. The solution was then homogeneously applied to the inner wall and base of a glass vial by turning and rocking on an orbital shaker until complete evaporation of the solvent. For example, with a 900 ppm solution of test substance, an area-based dose of 5 μg/cm^2 was achieved.
# (§4) After the solvent was completely evaporated, 5-10 adult ticks were put in each coated test vial, which was then sealed with a perforated plastic lid and incubated in a horizontal position in the dark at room temperature and ambient humidity (Rhipicephalus sanguineus) or in a climate-controlled cabinet (Ixodes ricinus, Dermacentor variabilis, Amblyomma americanum [21° C., 85% rel. hum.]). Acaricidal activity against the respective tick species was determined after 48 h. For this, ticks were collected to the base of the test vial by gentle knocking, and test vials were then incubated on a hotplate at 45-50° C. for no longer than 5 min. Ticks which remained motionless on the base of the test vial or moved uncoordinated without deliberately climbing up to avoid the heat were considered dead or moribund, respectively.
# (§5) A substance was judged to have good acaricidal activity against the respective tick species when at least 80% of ticks were found dead or moribund at a dose of the substance of g/cm^2. An acaricidal activity of 100% means all ticks were dead or moribund. An acaricidal activity of 0% means none of the ticks was found dead or moribund.
# [3] = system: Dermacentor variabilis; test: In vitro contact test with adult hard ticks (Dermacentor variabilis); settings: read-out: acaricidal activity; for pest or weed control at 0.2 µg/cm2, 0.2 µg/cm2: dose 0.2 μg/cm^2, 48 h; for pest or weed control at 1 µg/cm2, 1 µg/cm2: dose 1 μg/cm^2, 48 h
# Protocol: as §1, §2, §3, §4, §5
# [4] = system: Ixodes ricinus; test: In vitro contact test with adult hard ticks (Ixodes ricinus); settings: read-out: acaricidal activity; for pest or weed control at 0.2 µg/cm2, 0.2 µg/cm2: dose 0.2 μg/cm^2, 48 h; for pest or weed control at 1 µg/cm2, 1 µg/cm2: dose 1 μg/cm^2, 48 h; for pest or weed control at 5 µg/cm2, 5 µg/cm2: dose 5 μg/cm^2, 48 h
# Protocol: as §1, §2, §3, §4, §5
# [5] = system: Rhipicephalus sanguineus; test: In vitro contact test with adult hard ticks (Rhipicephalus sanguineus); settings: read-out: acaricidal activity; for pest or weed control at 0.04 µg/cm2, 0.04 µg/cm2: dose 0.04 μg/cm^2, 48 h; for pest or weed control at 0.2 µg/cm2, 0.2 µg/cm2: dose 0.2 μg/cm^2, 48 h; for pest or weed control at 1 µg/cm2, 1 µg/cm2: dose 1 μg/cm^2, 48 h
# Protocol: as §1, §2, §3, §4, §5
# [6] = system: Rhipicephalus (Boophilus) microplus; test: In vitro injection test with Rhipicephalus (Boophilus) microplus (BOOPMI Inj); settings: 168 h, laid fertile eggs after 7 days, read-out: acaricidal activity; for pest or weed control at 0.00016 mg: dose 0.16 μg/animal injected; for pest or weed control at 0.0008 mg: dose 0.8 μg/animal injected; for pest or weed control at 32 ng: dose 0.032 μg/animal injected
# Protocol: In Vitro Injection Test with Rhipicephalus (Boophilus) Microplus (BOOPMI Inj)
# To produce an appropriate mixture for injection, the test substance was dissolved and diluted in dimethyl sulphoxide to the desired concentration. 1 μl of the test mixture was injected into the abdomen of each of 5 engorged adult female cattle ticks (Rhipicephalus (Boophilus) microplus). The ticks were transferred into petri dishes and maintained in a climate-controlled room [28° C., 85% rel. hum.].
# Acaricidal activity against cattle ticks was assessed after 7 days by assessment of laid fertile eggs. […] An acaricidal activity of 100% means that none of the ticks laid eggs or laid eggs were infertile; 0% means that the ticks laid eggs, and all the eggs were fertile.
# [7] = system: Ctenocephalides felis; test: Ctenocephalides felis in-vitro feeding test with fleas (CTECFE oral); settings: 48 hours, read-out: insecticidal feeding activity; for pest or weed control at 0.0064 ppm: dose 0.0064 ppm in citrated cattle blood; for pest or weed control at 0.032 ppm: dose 0.032 ppm in citrated cattle blood; for pest or weed control at 0.16 ppm: dose 0.16 ppm in citrated cattle blood; for pest or weed control at 0.8 ppm: dose 0.8 ppm in citrated cattle blood; for pest or weed control at 4 ppm: dose 4 ppm in citrated cattle blood
# Protocol: Ctenocephalides felis In-Vitro Feeding Test with Fleas (CTECFE Oral)
# To prepare a test blood mixture for feeding fleas, the test substance was dissolved in dimethyl sulphoxide and diluted with citrated cattle blood to the desired concentration.
# To assemble the test set-up, about 20 unfed adult male and female cat fleas
# (Ctenocephalides felis) were placed in a chamber which was closed at the top and bottom with gauze. A metal cylinder was sealed at one end with parafilm membrane, placed with the sealed base onto the chamber, and filled with the test blood mixture, which could be imbibed by the fleas through the parafilm membrane. The assembled test set-up was maintained at about 37° C. After 48 hours, the insecticidal feeding activity against fleas was determined. 100% means that all of the fleas were killed; 0% means that none of the fleas was killed.
SMILES,"pest or weed control at 0.04 µg/cm2, 0.04 µg/cm2 [1] [%]","pest or weed control at 0.2 µg/cm2, 0.2 µg/cm2 [1] [%]","pest or weed control at 1 µg/cm2, 1 µg/cm2 [1] [%]","pest or weed control at 0.2 µg/cm2, 0.2 µg/cm2 [2] [%]","pest or weed control at 1 µg/cm2, 1 µg/cm2 [2] [%]","pest or weed control at 0.2 µg/cm2, 0.2 µg/cm2 [3] [%]","pest or weed control at 1 µg/cm2, 1 µg/cm2 [3] [%]","pest or weed control at 0.2 µg/cm2, 0.2 µg/cm2 [4] [%]","pest or weed control at 1 µg/cm2, 1 µg/cm2 [4] [%]","pest or weed control at 5 µg/cm2, 5 µg/cm2 [4] [%]","pest or weed control at 0.04 µg/cm2, 0.04 µg/cm2 [5] [%]","pest or weed control at 0.2 µg/cm2, 0.2 µg/cm2 [5] [%]","pest or weed control at 1 µg/cm2, 1 µg/cm2 [5] [%]",pest or weed control at 0.00016 mg [6] [%],pest or weed control at 0.0008 mg [6] [%],pest or weed control at 0.0064 ppm [7] [%],pest or weed control at 0.16 ppm [7] [%],pest or weed control at 0.8 ppm [7] [%],pest or weed control at 4 ppm [7] [%],pest or weed control at 32 ng [6] [%],further results
N#Cc1ccc(C(=O)Nc2cccc(C(=O)Nc3c(Br)cc(C(F)(C(F)(F)F)C(F)(F)F)cc3C(F)(F)F)c2F)cc1 [Compound 16],95,95,95,90,90,90,90,90,90,90,90,90,90,100,100,95,95,95,95,,pest or weed control at 0.032 ppm [7]: 95%
CN(C(=O)c1ccc(F)cc1)c1cccc(C(=O)Nc2c(Br)cc(C(F)(C(F)(F)F)C(F)(F)F)cc2C(F)(F)F)c1F [Compound 26],95,95,95,90,90,90,90,,90,90,,,90,100,100,,,95,95,100,
N#Cc1ccc(C(=O)Nc2cccc(C(=O)Nc3c(Br)cc(C(F)(C(F)(F)F)C(F)(F)F)cc3OC(F)(F)F)c2F)cc1 [Compound 13],,95,95,90,90,90,90,90,90,90,90,90,90,100,100,,95,95,95,100,pest or weed control at 0.032 ppm [7]: 95%
O=C(Nc1cccc(C(=O)Nc2c(Br)cc(C(F)(C(F)(F)F)C(F)(F)C(F)(F)F)cc2C(F)(F)F)c1F)c1ccc(F)cc1 (centres unmarked) [Compound 36],95,95,95,90,90,90,90,90,90,90,90,90,90,100,100,95,95,95,95,100,
O=C(Nc1cccc(C(=O)Nc2c(Br)cc(C(F)(C(F)(F)F)C(F)(F)F)cc2C(F)(F)F)c1F)c1ccc(F)cc1 [Compound 29],,95,95,90,90,90,90,,,90,90,90,90,,,,,95,95,,
O=C(Nc1cccc(C(=O)Nc2c(Br)cc(C(F)(C(F)(F)F)C(F)(F)F)cc2OC(F)(F)F)c1)c1ccc(F)cc1 [Compound 12],,95,95,90,90,,,90,90,90,90,90,90,100,100,,,95,95,,"pest or weed control at 0.04 µg/cm2, 0.04 µg/cm2 ([2]; dose 0.04 μg/cm^2, 48 h): 90%"
